Laboratory results published in patent publication US8435576B2, “Use of cocoa polyphenols for treating a prostate hyperplasia, a specific cocoa extract and applications” (Barry Callebaut AG, priority 2005, dated 2013).

Assays:
Assay type in all cases: in vivo, Wistar rats
[1] = Body weight during 14-day oral treatment before heat stroke
Procedure: Eight male rats of Wistar/Han IGS strain (Charles River Laboratories, 69-St-Germain sur l'Arbresle—France) weighing 300 to 320 g are used. On receipt, the rats are housed, four to a cage, in 48×27×20 cm polycarbonate cages (U.A.R., 91-Epinay-Sur-Orge, France) in a controlled environment (50±5% humidity; temperature 22±1° C.; lighting from 20:00 h to 08:00 h, i.e. an inverted lightness/darkness cycle: 12 h/12 h).
The rats are weighed each day for the fourteen days of the treatment in order to determine their body weight change.

leukocyte free radicals = experiment: Free radicals in the blood after heat stroke (pholasine chemiluminescence); conditions: after heat stroke 40° C., 120 min; 14 days oral CPE1 22.9, CPE2 24.3, vitamin E 200 mg/kg/day
Procedure: (§1) After each daily administration of the product, the rats have free access to standard food granules.
(§2) On the 16th day, after fasting over night, the conscious rats of the various groups, with the exception of those of the vehicle group, are exposed to a heat stroke by placing them in a temperature-controlled chamber at 40° C. with a relative humidity of 50% for 120 minutes. The rats expressed their normal heat-regulating behavior. Immediately after the heat stroke, the rats with a rectal temperature of between 41.5° C. and 42° C. are included in the study. The rats returned to their cage at 22° C.
On the 16th day, 500 μl of blood samples were collected from the tail vein of 12 rats of each group, into tubes containing heparin to check the increase in free radicals after exposure to the heat stroke. On the basis of the chemiluminescence of pholasine, a photo-protein from the marine mollusc Pholas dactylus, the production of leukocyte free radicals was measured using a kit (Knight Scientific, Cell Activation Test Kits for Whole Blood with Adjuvant-K) by activation of the NADPH oxydase complex in diluted blood (In CytoTox laboratory, Nancy, France).

[2] = tested on: cognitive performances after heat stroke; experiment: Light extinction test after heat stroke; conditions: day 18, after heat stroke
Procedure: as §1, §2
Three days after exposure to the heat stroke, on day 18 (D18), the rats are tested for the preventive antioxidant effects of the two CPEs on the learning performances, by using the light extinction test. The experimental device consists of a brightly lit cage (50×40×37 cm). The level of lighting in the test cage is 1200 lux.
During the test session, the rats are placed individually in the cage for 20 minutes to learn how to control the light environment.

[3] = tested on: cognitive performances after heat stroke; experiment: Morris water labyrinth test after heat stroke
Procedure: as §1, §2
The Morris water labyrinth (1984) makes it possible to test the capacity for spatial orientation and the processes of learning and memorization. On the 20th and 21st days (D20 and D21), the rats are tested in the water labyrinth device to evaluate the spatial learning performances and their long-term memory. The experimental procedure consists in training rats, on the 20th day, to find a hidden platform (10 mm below the surface of the water) at a fixed point in the water tank (150 cm in diameter) in a series of five tests starting from the same starting point.
During the first test, the platform is placed against the wall of the tank. During the second test, the platform is placed 5 cm from the wall of the tank to allow the rats to find the platform easily. During the following three tests, the platform is placed 10 cm from the wall of the tank. Each test is followed by a 30-second rest period on the platform.
On the 21st day, the platform is placed at a distance from the wall of the tank in the same place as during the session on the 20th day and the long-term memory of the rats is tested in a single test.
The variable recorded in the water tank is the latency time required to get out of the water and reach the platform serving as a refuge arranged in the basin.

SMILES: Cc1c(C)c2c(c(C)c1O)CC[C@@](C)(CCC[C@H](C)CCC[C@H](C)CCCC(C)C)O2 [Vitamin E, α-tocopherol]
- Body weight ([1]; Day 1, oral daily CPE1 22.9, CPE2 24.3, vitamin E 200 mg/kg): 320.9 ± 15.4 g
- Body weight ([1]; Day 3): 328.9 ± 15.8 g
- Body weight ([1]; Day 4): 330.6 ± 15.7 g
- Body weight ([1]; Day 5): 333.9 ± 16.5 g
- Body weight ([1]; Day 6): 336.6 ± 15.9 g
- Body weight ([1]; Day 7): 339.4 ± 17.3 g
- Body weight ([1]; Day 8): 342.1 ± 17.2 g
- Body weight ([1]; Day 11): 351.6 ± 18.0 g
- Body weight ([1]; Day 12): 354.6 ± 18.8 g
- Free radical content in the plasma on the 16th day (Mean ± SEM) (leukocyte free radicals): 311.15 ± 20.56 mV
- Discrimination of the levers [2]: pressed the active lever more than the inactive lever
- Number of active lever presses (ALP) (mean ± SEM) [2]: 27.28 ± 3.54
- Number of inactive lever presses (ILP) (mean ± SEM) [2]: 17.60 ± 2.47
- Total number of lever presses (Mean ± SEM) ([2]; n = 16/group): 42.38 ± 5.76
- Latency for reaching the platform (Mean ± SEM) ([3]; Day 20, Test 1): 51.75 ± 6.45 s
- Latency for reaching the platform (Mean ± SEM) ([3]; Day 20, Test 2): 25.38 ± 4.94 s
- Latency for reaching the platform (Mean ± SEM) ([3]; Day 20, Test 3): 26.44 ± 5.20 s
- Latency for reaching the platform (Mean ± SEM) ([3]; Day 20, Test 4): 17.75 ± 2.44 s
- Latency for reaching the platform (Mean ± SEM) ([3]; Day 20, Test 5): 13.56 ± 1.37 s
- Latency for reaching the platform (Mean ± SEM) ([3]; Day 21, Test 6): 14.69 ± 2.22 s
